In patent US20240317748A1, “CARBONYL SUBSTITUTED DIAZASPIRO COMPOUNDS AND ITS USE” (BIONOVA PHARMACEUTICALS (SHANGHAI) LIMITED, priority 2021, published 2024) one finds IC50 data, which are given here for 30 compounds.

Molecules are shown by their SMILES.

The test system of one test is MV-4-11 cells. The experiment in a line: Cell proliferation assay (CellTiter-Glo), MV-4-11. It counts as cell-based, human. Particulars: Homo sapiens, MV4-11, 96 h; MV-4-11 (MLL-AF4), 4 days incubation; read-out: Cell antiproliferation assay MV-4-11 IC50. The protocol:
The antiproliferative activity of test compounds was assessed in human leukemia cell lines. The cell line MV4-11, MOLM13 and OCI-AML3, which expresses the MLL fusion protein MLL-AF4, MLL-AF9 and carry the NPM1c gene mutation, respectively, were tested. HL-60 was used as a control cell line containing two MLL wildtype alleles in order to exclude compounds that display general cytotoxic effect. MV4-11 cells were cultured in IMDM supplemented with 10% FBS, MOLM13 and OCI-AML3 cells were cultured in RPMI1640 supplemented with 20% FBS, and HL-60 cells were cultured in IMDM supplemented with 20% FBS. Corresponding cells (MV4-11, MOLM13, OCI-AML3 or HL-60 cell line) were seeded in 100 uL medium per well in 96-well plate (white wall with clear bottom, tissue culture treated, Corning, Cat. No. CLS3903; Lot.No. 30419025). Plates were placed in the CO2 incubator overnight. Compounds solution (2 mM starting, 4-fold serial dilution) were prepared and added to the wells containing 100 μL of the culture medium with HPD300 according to the plate map and centrifuge at 1000 rpm for 1 minutes (200-fold dilution totally). MV4-11, MOLM13, OCI-AML3 and HL-60 cells were incubated with the compounds for 4, 12, 5 and 4 days, respectively, under 5% CO2 at 37° C., respectively. 100 μL of CellTiter-Glo reagent (Promega, Cat. No. G7573, Lot. No. 0000416710) was added to the assay plate by Multidrop Combi instrument, contents were mixed for 10 minutes on an orbital shaker to induce cell lysis. After incubation at room temperature for 10 mins, clear bottom with white back seal was pasted and luminescence with Envision was read.
For orientation: In ATP-based viability assays light output follows the ATP content of the culture.

The next test concerns the target T1, Menin-MLL1 (Homo sapiens, UniProt O00255).
T1 construct: Menin (2-610) isform2; purchased ChemPartner 2020111101
T1 sequence (O00255 2-610): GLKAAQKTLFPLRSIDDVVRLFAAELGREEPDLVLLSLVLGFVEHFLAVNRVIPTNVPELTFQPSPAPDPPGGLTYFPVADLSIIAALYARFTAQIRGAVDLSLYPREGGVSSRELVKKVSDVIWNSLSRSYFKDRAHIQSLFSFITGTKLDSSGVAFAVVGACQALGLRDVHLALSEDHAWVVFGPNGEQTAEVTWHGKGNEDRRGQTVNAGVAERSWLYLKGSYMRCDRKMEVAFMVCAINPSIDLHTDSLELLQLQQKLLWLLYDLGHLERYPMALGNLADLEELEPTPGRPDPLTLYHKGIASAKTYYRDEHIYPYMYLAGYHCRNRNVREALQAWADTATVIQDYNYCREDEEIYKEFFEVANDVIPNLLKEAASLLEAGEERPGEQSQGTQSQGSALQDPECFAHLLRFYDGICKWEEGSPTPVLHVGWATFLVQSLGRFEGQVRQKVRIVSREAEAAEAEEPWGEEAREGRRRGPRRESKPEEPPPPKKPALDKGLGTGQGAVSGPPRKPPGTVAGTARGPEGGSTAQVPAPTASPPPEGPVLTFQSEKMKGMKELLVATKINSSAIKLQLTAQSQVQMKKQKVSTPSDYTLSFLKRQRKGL
Put plainly: Menin-MLL1 inhibition assay (fluorescence polarization, Menin protein + FAM-MLL peptide). Particulars: Menin (2-610) isoform 2, FAM-labelled MLL peptide, mP readout; read-out: Biochemical assay Menin-MLL1 IC50. Type of test: binding. The protocol:
1× assay bu9ffer (Tris 7.5 50 mM, NaCl 50 mM, DTT 1 mM, Tween-20 0.01%) was prepared and test compounds solution (10 mM in DMSO, Sigma, Cat. No. 34869) were transferred to assay plate (384-well plate, Perkin Elmer, Cat. No. 6007279) by Echo. The final fraction of DMSO is 1%. 20 nM of Menin protein (Menin (2-610) isform2, ChemPartner, Cat. No. 2020111101) in 1× assay buffer was added to prepare 2× enzyme solution. Then 10 nM of MLL-peptide (Ac-SRWRFPARPGTGRR-Ahx-Ahx-K(FAM)-NH2, GL Biochem (Shanghai)), Cat. No. 833831/202009220104) in 1× assay buffer was added to prepare 2× substrate solution. 10 μL of 2× enzyme solution was transferred to assay plate or 10 μL of 1× assay buffer for low control group. 10 μL of 2× substrate solution was added to each well to start reaction. mP data on Envision (Ex480/Em535(s), Em535(p)) was collected.
Compound potencies were determined by first calculating % inhibition at each compound concentration according to equation 1:
Inhibition %=(Max−Signal)/(Max−Min)*100 (Equation 1)
Y=Bottom+(Top-Bottom)/(1+(IC50/X)[…]), where Y is % inhibition and X is compound concentration (Equation 2)

Take `CCN(C(=O)c1cc(F)ccc1Oc1cncnc1N1CC2(CCN(C(=O)[C@@H]3COCCN3)CC2)C1)C(C)C` [Example 26]: the IC50 worked out at 0.647 µM in the test with MV-4-11 cells and 0.0102 µM on Menin-MLL1.

Regarding `CCN(C(=O)c1cc(F)ccc1Oc1nncnc1N1CC2(CCN(C(=O)[C@H]3NC[C@H](C)[C@@H]3C)CC2)C1)C(C)C` [Example 92], the IC50 with MV-4-11 cells is 0.0188 µM; on Menin-MLL1, 0.008 µM.

With `CCN(C(=O)c1cc(C#N)ccc1Oc1cncnc1N1CC2(CCN(C(=O)[C@@H]3C[C@@H](F)CN3)CC2)C1)C(C)C` [Example 17], the IC50 was found to be 0.317 µM in the test on MV-4-11 cells and 0.0253 µM at Menin-MLL1.

With `CCN(C(=O)c1cc(F)ccc1Oc1cncnc1N1CC2(CCN(C(=O)[C@@H]3C[C@@H](C#N)CN3)CC2)C1)C(C)C` [Example 27, 2-((4-(7-((2S,4R)-4-cyanopyrrolidine-2-carbonyl)-2,7-diazaspiro[3.5]nonan-2-yl)pyrimidin-5-yl)oxy)-N-ethyl-5-fluoro-N-isopropylbenzamide], the IC50 with MV-4-11 cells was 0.42 µM; on Menin-MLL1 it was 0.0184 µM.

In the case of `CCN(C(=O)c1cc(F)ccc1Oc1cncnc1N1CC2(CCN(C(=O)[C@@H]3CCCN3)CC2)C1)C(C)C` [Example 21], the results for the IC50 in the test with MV-4-11 cells and on Menin-MLL1 were 0.0422 µM and 0.0058 µM, respectively.

For the compound `CCN(C(=O)c1cc(F)ccc1Oc1cncnc1N1CC2(CCN(C(=O)[C@H]3NCC[C@@H]3O)CC2)C1)C(C)C` [Example 8], the IC50 in the test on MV-4-11 cells worked out at 0.332 µM; on Menin-MLL1 it was 0.0055 µM.

With `CCN(C(=O)c1cc(F)ccc1Oc1cncnc1N1CC2(CCN(C(=O)[C@@H]3CC[C@@H](F)CN3)CC2)C1)C(C)C` [Example 25], the results for the IC50 in the test on MV-4-11 cells and on Menin-MLL1 were 0.233 µM and 0.0084 µM, respectively.

For the compound `CCN(C(=O)c1cc(F)ccc1Oc1cncnc1N1CC2(CCN(C(=O)[C@H]3NCc4c3cnn4Cc3ccccc3)CC2)C1)C(C)C` [Example 44], the results for the IC50 in the test with MV-4-11 cells and on Menin-MLL1 were 0.0307 µM and 0.0039 µM, respectively.

Take `C[C@H]1COCCN1C(=O)c1cc(F)ccc1Oc1cncnc1N1CC2(CCN(C(=O)[C@@H]3C[C@@H](F)CN3)CC2)C1` [Example 53]: the IC50 turned out to be 0.786 µM in the test with MV-4-11 cells and 0.0109 µM at Menin-MLL1.

For the compound `CCN(C(=O)c1cc(F)ccc1Oc1cncnc1N1CC2(CCN(C(=O)[C@H]3NCc4ccccc43)CC2)C1)C(C)C` [Example 33], the IC50 is 0.0193 µM with MV-4-11 cells and 0.0045 µM on Menin-MLL1.

Regarding `CC(C)N(C(=O)c1cc(F)ccc1Oc1nncnc1N1CC2(CCN(C(=O)[C@@H]3C[C@@H](C)CN3)CC2)C1)C(C)C` [Example 73], the figures for the IC50 in the test on MV-4-11 cells and on Menin-MLL1 were 0.022 µM and 0.0041 µM, respectively.

For the compound `CCN(C(=O)c1cc(F)ccc1Oc1cncnc1N1CC2(CCN(C(=O)[C@@H]3C[C@@H]4C[C@@H]4N3)CC2)C1)C(C)C` [Example 30], the IC50 in the test with MV-4-11 cells was found to be 0.0338 µM; on Menin-MLL1, 0.0047 µM.

As for `CC(C)N(CC(F)F)C(=O)c1cc(F)ccc1Oc1nncnc1N1CC2(CCN(C(=O)[C@H]3NC[C@@H]4CCC[C@@H]43)CC2)C1` [Example 105], the IC50 is 0.0171 µM with MV-4-11 cells and 0.004 µM at Menin-MLL1.

For the compound `CCN(C(=O)c1cc(F)ccc1Oc1cncnc1N1CC2(CCN(C(=O)[C@@H]3C[C@H]4C[C@H]4N3)CC2)C1)C(C)C` [Example 32], the values for the IC50 with MV-4-11 cells and at Menin-MLL1 were 0.0754 µM and 0.0065 µM, respectively.

Take `COc1ccc(-c2cc(F)ccc2Oc2nncnc2N2CC3(CCN(C(=O)[C@H]4NC[C@@H]5CCC[C@@H]54)CC3)C2)c(C2CC2)n1` [Example 107]: the IC50 in the test on MV-4-11 cells and on Menin-MLL1 was 0.0024 µM each time.

As for `[2H]C([2H])(C)N(C(=O)c1cc(F)ccc1Oc1nncnc1N1CC2(CCN(C(=O)[C@H]3NC[C@@H]4CCC[C@@H]43)CC2)C1)C(C)C` [Example 102], the IC50 in the test with MV-4-11 cells was determined as 0.0046 µM; on Menin-MLL1, 0.0054 µM.

`O=C([C@H]1NC[C@@H]2CCC[C@@H]21)N1CCC2(CC1)CN(c1ncnnc1Oc1ccc(F)cc1-c1cccnc1C1CC1)C2` [Example 103]: the values for the IC50 with MV-4-11 cells and at Menin-MLL1 were 0.0015 µM and 0.0044 µM, respectively.

Turning to `CC[C@@H]1CCN[C@H]1C(=O)N1CCC2(CC1)CN(c1ncnnc1Oc1ccc(F)cc1C(=O)N(CC)C(C)C)C2` [Example 71], the IC50 in the test with MV-4-11 cells stood at 1.25 µM; at Menin-MLL1 it was 0.016 µM.

For `CC(C)n1ncc(Cl)c1-c1cc(F)ccc1Oc1nncnc1N1CC2(CCN(C(=O)[C@@H]3C[C@@H](F)CN3)CC2)C1` [Example 75], the IC50 in the test on MV-4-11 cells came to 0.0406 µM; at Menin-MLL1, 0.0058 µM.

As for `CCN(C(=O)c1cc(F)ccc1Oc1nncnc1N1CC2(CCN(C(=O)[C@@H]3CC(CC#N)CN3)CC2)C1)C(C)C` (stereo partly drawn) [Example 61], the IC50 in the test on MV-4-11 cells was 0.153 µM; at Menin-MLL1, 0.0061 µM.

Regarding `CCN(C(=O)c1cc(F)ccc1Oc1nncnc1N1CC2(CCN(C(=O)[C@@H]3NCC[C@H]3C(F)F)CC2)C1)C(C)C` [Example 99b, 2-((5-(7-((2R,3R)-3-(difluoromethyl)pyrrolidine-2-carbonyl)-2,7-diazaspiro[3.5]nonan-2-yl)-1,2,4-triazin-6-yl)oxy)-N-ethyl-5-fluoro-N-isopropylbenzamide], the IC50 was 1.93 µM in the test with MV-4-11 cells and 0.043 µM at Menin-MLL1.

With `O=C([C@H]1NC[C@@H]2CCC[C@@H]21)N1CCC2(CC1)CN(c1ncnnc1Oc1ccc(F)cc1-c1ccc(=O)[nH]c1C1CC1)C2` [Example 106], the IC50 with MV-4-11 cells was determined as 0.0094 µM; on Menin-MLL1, 0.002 µM.

`CCN(C(=O)c1cc(F)ccc1Oc1cncnc1N1CC2(CCN(C(=O)[C@H]3NCC[C@H]3O)CC2)C1)C(C)C` [Example 7]: the figures for the IC50 in the test on MV-4-11 cells and at Menin-MLL1 were 0.22 µM and 0.0075 µM, respectively.

For `CCN(C(=O)c1cc(F)ccc1Oc1cncnc1N1CC2(CCN(C(=O)[C@H]3NCC[C@H]3C)CC2)C1)C(C)C` [Example 40], the IC50 with MV-4-11 cells came out at 0.0262 µM; on Menin-MLL1, 0.0054 µM.

In the case of `O=C([C@@H]1C[C@@H](F)CN1)N1CCC2(CC1)CN(c1ncncc1Oc1ccc(F)cc1C(=O)N1C3CCC1COC3)C2` [Example 59], the IC50 with MV-4-11 cells stood at 0.159 µM; on Menin-MLL1, 0.0055 µM.

`CC(C)N(CC(F)F)C(=O)c1cc(F)ccc1Oc1cncnc1N1CC2(CCN(C(=O)[C@@H]3C[C@@H](F)CN3)CC2)C1` [Example 45]: the IC50 with MV-4-11 cells turned out to be 0.0361 µM; at Menin-MLL1, 0.0034 µM.

On to `CCN(C(=O)c1cc(F)ccc1Oc1cncnc1N1CC2(CCN(C(=O)[C@H]3NCc4[nH]ncc43)CC2)C1)C(C)C` [Example 54], for which the IC50 in the test with MV-4-11 cells came to 0.582 µM; on Menin-MLL1 it was 0.0043 µM.

`[2H]c1c(F)cc(C(=O)N(CC)C(C)C)c(Oc2cncnc2N2CC3(CCN(C(=O)[C@@H]4C[C@@H](F)CN4)CC3)C2)c1[2H]` [Example 31]: the results for the IC50 in the test on MV-4-11 cells and on Menin-MLL1 were 0.041 µM and 0.0067 µM, respectively.

For the compound `CCN(C(=O)c1cc(F)ccc1Oc1cncnc1N1CC2(CCN(C(=O)[C@@H]3C[C@@H](F)CN3)CC2)C1)C1CC1` [Example 20], the IC50 in the test with MV-4-11 cells turned out to be 0.267 µM; on Menin-MLL1, 0.0101 µM.

For the compound `CCN(C(=O)c1cc(F)ccc1Oc1cncnc1N1CC2(CCN(C(=O)[C@@H]3C[C@H](F)CN3)CC2)C1)C(C)C` [Example 3], the IC50 with MV-4-11 cells turned out to be 0.329 µM; at Menin-MLL1 it was 0.0209 µM.
